# Test results as given in patent US20040191902A1, “Growth and differentiation of stem cells” (Pfizer Inc, priority 2003, published 2004).
# Tests used:
# [1] = test system: CYP3a, CYP2d, CYP2e1 and CYP1a2 in hepatocyte-like cells; assay: Conversion of test compounds by hepatocyte-like cells (HPLC and mass spectrometry of supernatants)
# Protocol: The presence of CYP proteins in the hepatocyte-like cells was also determined by monitoring the conversion of certain compounds added to the hepatocyte-like cells. Two test compounds (7-ethoxy-coumarin and dextromethorphan) were added to hepatocyte-like cells. The supernatants of the cells were then subjected to high pressure liquid chromatography (HPLC) and mass spectrometry to identify products of the conversion of the test compounds by CYP3a, CYP2d, CYP2e1 and CYP1a2.
# hepatocyte-like cells = assay: Dibenzylfluorescein (DBF) assay for metabolic activity of hepatocyte-like cells; type: in vitro ADME, mouse; conditions: hepatocyte-like cells differentiated in presence or absence of HPO
# Protocol: Another test that was used to characterize the hepatocyte-like cells is the dibenzylfluorescein (DBF) assay for metabolic activity. See, for example, Stresser et al., Drug Metab. Disp., 28:1440-48 (2000). These assays were conducted using a DBF compound (Molecular Probes, Eugene Oreg.) according to the manufacturer's recommendations.
# 4MBr-5 cell line = conditions: 3H-thymidine incorporation, typical range; cited from earlier work
# TF-1 cell line = conditions: proliferation of TF-1; typical range; cited from earlier work
# Balb/3T3 cell line = conditions: 3H-thymidine incorporation, typical range; cited from earlier work
# [2] = test system: cells differentiating from ES cells into hepatocyte-like cells; assay: In vitro differentiation of mouse ES cells into hepatocyte-like cells with hepatopoietin added to the media; type: cell-based
# Protocol: Mouse ES cells were differentiated into hepatocyte-like cells as described above, with the addition of 50 ng/ml mouse hepatopoietin protein to the HepII, HepIII and/or HepIV media. The mouse hepatopoietin protein consisted of a portion of the wild-type protein, which portion has the amino acid sequence set forth in SEQ ID NO: 16.
# The presence of hepatopoietin in either medium had this effect, but the strongest effect was seen when it was included in all three media, i.e., during the middle stage, the late stage and the maturation and selection stage. In this case, it appeared that over 90% of the cells in the culture were hepatocyte-like cells.
# NIH/3T3 cells = conditions: 3H-thymidine incorporation, quiescent NIH/3T3; typical range; cited from earlier work
molecule,measurement,setting,value
CCOc1ccc2ccc(=O)oc2c1 [7-ethoxy-coumarin],"conversion products by CYP3a, CYP2d, CYP2e1 and CYP1a2",[1]; hepatocytes,expected conversion products were obtained
"O=C(OCc1ccccc1)c1ccccc1-c1c2ccc(=O)cc-2oc2cc(OCc3ccccc3)ccc12 [DBF, dibenzylfluorescein]",DBF assay for metabolic activity,hepatocyte-like cells,positive
COc1ccc2c(c1)[C@]13CCCC[C@@H]1[C@H](C2)N(C)CC3 [dextromethorphan],"conversion products by CYP3a, CYP2d, CYP2e1 and CYP1a2","[1]; added to hepatocyte-like cells, supernatants by HPLC and mass spectrometry",expected conversion products were obtained
human recombinant HGF: human recombinant hepatocyte growth factor,ED50,4MBr-5 cell line,20 to 40 ng/mL
human recombinant OSM: human recombinant oncostatin M,ED50,TF-1 cell line,0.1 to 3 ng/mL
human recombinant aFGF: human recombinant acidic fibroblast growth factor,ED50,Balb/3T3 cell line,2 to 10 ng/mL
"mouse HPO: portion of wild-type mouse hepatopoietin, 125 amino acids, SEQ ID NO: 16, produced in E. coli",proliferation of cells giving rise to hepatocyte-like cells,"[2]; 50 ng/ml in HepII, HepIII and/or HepIV media",stimulates the proliferation
same,cells in the culture that were hepatocyte-like cells,"[2]; 50 ng/ml included in all three media (middle, late, maturation and selection stages)",over 90%
"mouse recombinant OSM: mouse recombinant oncostatin M (protein, UniProt P53347 25-206, looked up) Oncostatin-M: NRGCSNSSSQLLSQLQNQANLTGNTESLLEPYIRLQNLNTPDLRAACTQHSVAFPSEDTLRQLSKPHFLSTVYTTLDRVLYQLDALRQKFLKTPAFPKLDSARHNILGIRNNVFCMARLLNHSLEIPEPTQTDSGASRSTTTPDVFNTKIGSCGFLWGYHRFMGSVGRVFREWDDGSTRSRR",ED50,NIH/3T3 cells,2 to 4 ng/mL
